Measured values: ChEMBL document CHEMBL1629634, “Postantibiotic effect of tigecycline against 14 gram-positive organisms” (Antimicrob Agents Chemother, 2009)
Values after ≈ are worked out from the molar mass of the structure shown.

Columns and labels:
[1] = tested on: Haemophilus influenzae; experiment: Antibacterial activity against amoxicillin, clavulanate-resistant Haemophilus influenzae expressing beta-lactamase assessed as post-antibiotic sub-MIC effect at 0.2 times MIC concentration pretreated with 10 times MIC concentration for 1 hr followed by 1:1000 dilution by viable plate count method; type: functional
[2] = tested on: Klebsiella pneumoniae; experiment: Antibacterial activity against Klebsiella pneumoniae assessed as post-antibiotic sub-MIC effect at 0.2 times MIC concentration pretreated with 10 times MIC concentration for 1 hr followed by 1:1000 dilution by viable plate count method; type: functional
[3] = tested on: Enterobacter cloacae; experiment: Antibacterial activity against Enterobacter cloacae assessed as post-antibiotic sub-MIC effect at 0.2 times MIC concentration pretreated with 10 times MIC concentration for 1 hr followed by 1:1000 dilution by viable plate count method; type: functional
[4] = tested on: Enterobacter cloacae; experiment: Antibacterial activity against Enterobacter cloacae assessed as post-antibiotic sub-MIC effect at 0.2 times MIC concentration pretreated with 2 times MIC concentration for 1 hr followed by 1:1000 dilution by viable plate count method; type: functional
[5] = tested on: Acinetobacter baumannii; experiment: (§1) Antibacterial activity against multidrug-resistant Acinetobacter baumannii producing OXA-24 and OXA-51 beta-lactamases assessed as post-antibiotic sub-MIC effect at 0.2 times MIC concentration pretreated with 2 times MIC concentration for 1 hr followed by 1:1000 dilution by viable plate count method; type: functional
[6] = tested on: Streptococcus pneumoniae; experiment: Antibacterial activity against penicillin-resistant Streptococcus pneumoniae assessed as sub-MIC effect at 0.3 times MIC concentration incubated for 1 hr by viable plate count method; type: functional
[7] = tested on: Enterococcus faecalis; experiment: Antibacterial activity against vancomycin-resistant Enterococcus faecalis assessed as sub-MIC effect at 0.3 times MIC concentration incubated for 1 hr by viable plate count method; type: functional
[8] = tested on: Streptococcus pneumoniae; experiment: Antibacterial activity against penicillin-intermediate Streptococcus pneumoniae assessed as post-antibiotic sub-MIC effect at 0.3 times MIC concentration pretreated with 10 times MIC concentration for 1 hr followed by 1:1000 dilution by viable plate count method; type: functional
[9] = tested on: Acinetobacter baumannii; experiment: Antibacterial activity against Acinetobacter baumannii assessed as post-antibiotic sub-MIC effect at 0.3 times MIC concentration pretreated with 10 times MIC concentration for 1 hr followed by 1:1000 dilution by viable plate count method; type: functional
[10] = tested on: Acinetobacter baumannii; experiment: as §1, with “at 0.3” for “at 0.2”, “with 10” for “with 2”; type: functional
[11] = tested on: Streptococcus pneumoniae; experiment: Antibacterial activity against penicillin-intermediate Streptococcus pneumoniae assessed as sub-MIC effect at 0.4 times MIC concentration incubated for 1 hr by viable plate count method; type: functional
[12] = tested on: Streptococcus pneumoniae; experiment: Antibacterial activity against penicillin-resistant Streptococcus pneumoniae assessed as sub-MIC effect at 0.4 times MIC concentration incubated for 1 hr by viable plate count method; type: functional
[13] = tested on: Staphylococcus aureus; experiment: Antibacterial activity against vancomycin-intermediate methicillin-resistant Staphylococcus aureus assessed as sub-MIC effect at 0.4 times MIC concentration incubated for 1 hr by viable plate count method; type: functional
[14] = tested on: Enterococcus faecalis; experiment: Antibacterial activity against vancomycin-resistant Enterococcus faecalis assessed as sub-MIC effect at 0.4 times MIC concentration incubated for 1 hr by viable plate count method; type: functional
[15] = tested on: Haemophilus influenzae; experiment: Antibacterial activity against beta-lactamase deficient and ampicillin-resistant Haemophilus influenzae assessed as sub-MIC effect at 0.4 times MIC concentration incubated for 1 hr by viable plate count method; type: functional
[16] = tested on: Haemophilus influenzae; experiment: Antibacterial activity against amoxicillin, clavulanate-resistant Haemophilus influenzae expressing beta-lactamase assessed as sub-MIC effect at 0.4 times MIC concentration incubated for 1 hr by viable plate count method; type: functional
[17] = tested on: Streptococcus pneumoniae; experiment: Antibacterial activity against penicillin-susceptible Streptococcus pneumoniae assessed as post-antibiotic sub-MIC effect at 0.4 times MIC concentration pretreated with 10 times MIC concentration for 1 hr followed by 1:1000 dilution by viable plate count method; type: functional
[18] = tested on: Streptococcus pneumoniae; experiment: Antibacterial activity against penicillin-susceptible Streptococcus pneumoniae assessed as post-antibiotic sub-MIC effect at 0.2 times MIC concentration pretreated with 10 times MIC concentration for 1 hr followed by 1:1000 dilution by viable plate count method; type: functional
[19] = tested on: Acinetobacter baumannii; experiment: Antibacterial activity against Acinetobacter baumannii assessed as sub-MIC effect at 0.2 times MIC concentration incubated for 1 hr by viable plate count method; type: functional
[20] = tested on: Klebsiella pneumoniae; experiment: Antibacterial activity against Klebsiella pneumoniae assessed as sub-MIC effect at 0.2 times MIC concentration incubated for 1 hr by viable plate count method; type: functional
[21] = tested on: Haemophilus influenzae; experiment: Antibacterial activity against amoxicillin, clavulanate-resistant Haemophilus influenzae expressing beta-lactamase assessed as sub-MIC effect at 0.2 times MIC concentration incubated for 1 hr by viable plate count method; type: functional
[22] = tested on: Enterococcus faecalis; experiment: Antibacterial activity against vancomycin-resistant Enterococcus faecalis assessed as sub-MIC effect at 0.2 times MIC concentration incubated for 1 hr by viable plate count method; type: functional
[23] = tested on: Acinetobacter baumannii; experiment: Antibacterial activity against Acinetobacter baumannii assessed as post antibiotic effect at 6 times MIC concentration incubated for 1 hr measured after 1:1000 dilution by viable plate count method; type: functional
[24] = tested on: Haemophilus influenzae; experiment: Antibacterial activity against amoxicillin, clavulanate-resistant Haemophilus influenzae expressing beta-lactamase assessed as post antibiotic effect at 6 times MIC concentration incubated for 1 hr measured after 1:1000 dilution by viable plate count method; type: functional
[25] = tested on: Enterococcus faecalis; experiment: Antibacterial activity against vancomycin-resistant Enterococcus faecalis assessed as post antibiotic effect at 10 times MIC concentration incubated for 1 hr measured after 1:1000 dilution by viable plate count method; type: functional
[26] = tested on: Staphylococcus aureus; experiment: Antibacterial activity against vancomycin-intermediate methicillin-resistant Staphylococcus aureus assessed as post antibiotic effect at 6 times MIC concentration incubated for 1 hr measured after 1:1000 dilution by viable plate count method; type: functional
[27] = tested on: Staphylococcus aureus; experiment: Antibacterial activity against vancomycin-intermediate methicillin-resistant Staphylococcus aureus assessed as post antibiotic effect at 10 times MIC concentration incubated for 1 hr measured after 1:1000 dilution by viable plate count method; type: functional
[28] = tested on: Streptococcus pneumoniae; experiment: Antibacterial activity against penicillin-resistant Streptococcus pneumoniae assessed as post antibiotic effect at 10 times MIC concentration incubated for 1 hr measured after 1:1000 dilution by viable plate count method; type: functional
[29] = tested on: Streptococcus pneumoniae; experiment: Antibacterial activity against penicillin-intermediate Streptococcus pneumoniae assessed as post antibiotic effect at 10 times MIC concentration incubated for 1 hr measured after 1:1000 dilution by viable plate count method; type: functional
[30] = tested on: Escherichia coli; experiment: Antibacterial activity against Escherichia coli by macrodilution method; type: functional
[31] = tested on: Haemophilus influenzae; experiment: Antibacterial activity against amoxicillin, clavulanate-resistant Haemophilus influenzae expressing beta-lactamase by macrodilution method; type: functional
[32] = tested on: Haemophilus influenzae; experiment: Antibacterial activity against beta-lactamase deficient and ampicillin-resistant Haemophilus influenzae by macrodilution method; type: functional
[33] = tested on: Enterobacter cloacae; experiment: Antibacterial activity against Enterobacter cloacae assessed as post-antibiotic sub-MIC effect at 0.4 times MIC concentration pretreated with 2 times MIC concentration for 1 hr followed by 1:1000 dilution by viable plate count method; type: functional
[34] = tested on: Acinetobacter baumannii; experiment: Antibacterial activity against Acinetobacter baumannii assessed as post-antibiotic sub-MIC effect at 0.4 times MIC concentration pretreated with 10 times MIC concentration for 1 hr followed by 1:1000 dilution by viable plate count method; type: functional
[35] = tested on: Escherichia coli; experiment: Antibacterial activity against Escherichia coli infected in neutropenic mouse thighs assessed as post antibiotic effect; type: functional, Thigh muscle
[36] = Half life in patient serum at 100 mg, iv followed by 50 mg every 12 hrs after 60 mins post dose; type: ADME, organism-based; conditions: human

CN(C)c1cc(NC(=O)CNC(C)(C)C)c(O)c2c1C[C@H]1C[C@H]3[C@H](N(C)C)C(O)=C(C(N)=O)C(=O)[C@@]3(O)C(O)=C1C2=O [TIGECYCLINE]
PAE [1]: 3.9 h | PAE [2]: 1.9 h | PAE [3]: 3.6 h | PAE [4]: 2.9 h | PAE [5]: 1.2 h | PAE [6]: 0.5 h | PAE [7]: 0.3 h | PAE [8]: 8.8 h | PAE [9]: 11.2 h | PAE [10]: 2.2 h | PAE [11]: 7.7 h | PAE [12]: 0.7 h | PAE [13]: 2.9 h | PAE [14]: 0.4 h | PAE [15]: 0.8 h | PAE [16]: 1.9 h | PAE [17]: 9 h | PAE [18]: 5.9 h | PAE [19]: 0.3 h | PAE [20]: 0.1 h | PAE [21]: 0 h | PAE [22]: 0.4 h | PAE [23]: 1.8 h | PAE [24]: 3.9 h | PAE [25]: 6 h | PAE [26]: 4 h | PAE [27]: 4 h | PAE [28]: 4.8 h | PAE [29]: 1.9 h | MIC [30]: 0.12 µg/mL (≈ 0.205 µM) | MIC [31]: 0.12 µg/mL | MIC [32]: 0.06 µg/mL (≈ 0.102 µM) | PAE [33]: 6.9 h | PAE [34]: 11.2 h | PAE [35]: 4.9 h | half-life [36]: 40 h
